US9670462B2, “Bioactive surface for hepatocyte-based applications” (priority 2006, dated 2017)

Tested on: hepatocytes

| Compound | morphological changes of 3D spheroids, pre-spheroid monolayer or 2D hepatocyte monolayer | effect on hepatocyte monolayer maintained on PET-Hybrid (soluble peptide 100 μM in culture medium) | toxicity to the hepatocytes (soluble peptide, treatment for 24 h) |
| --- | --- | --- | --- |
| NCCCCCCOC1O[C@H](CO)[C@H](O)[C@H](O)[C@H]1O (stereo partly drawn) [galactose ligands, 1-O-(6′-aminohexyl)-D-galactopyranoside] | did not induce any morphological changes |  |  |
| N=C(N)NCCC[C@H](NC(=O)CN)C(=O)NCC(=O)N[C@@H](CC(=O)O)C(=O)N[C@@H](CO)C(=O)O [GRGDS] |  | destabilized the hepatocyte monolayer | slight toxicity |
